The subject of one data set is MCF-7 cells. The data set can be described thus: Apoptosis assay (Annexin V staining). In kind it is cell-based, human. The conditions noted are these: FIG. 4. The protocol: This assay was performed to determine the number of cells that were susceptible to chemotherapeutic drugs following incubation with siRNAs. Cells transfected with siRNA were seeded in Lab-Tek 16-well chamber slides (Electron Microscopy Sciences, Hatfield, Pa.) at 10^4 cells/well 48 hrs post-transfection. Apoptosis was determined 16 hours later by annexin-V staining using the Annexin-V FLUOS kit (Roche, Ltd., Basel, CH) following the manufacturer's instructions. Slides were observed under a fluorescence microscope and images were taken using an Olympus digital camera and the Q-Capture software (QImaging, Burnaby, BC, CA).

Data set [1] deals with hematological tumor cells. Nature of the data set: Hematological tumors in MHC-matched mice. In kind it is in vivo. As to the method: In order to determine whether targeting calumenin is useful in treating a preexisting cancerous condition, MHC-matched mice, 5 to 7 weeks old, receive a subcutaneous (s.c.) injection of 5×10^5 hematological tumor cells, and tumors are allowed to form. Tumor growth starting on the first day of treatment is measured by palpitation, and the volume of the xenograft is monitored every 4 days. Tumors are allowed to grow to a sufficient size (5.5 mm) for appropriate analysis of the effects of calumenin treatment on tumor sensitivity to chemotherapeutic drugs. Mice are then treated with a calumenin siRNA (3 μg daily for 16 days) designed to decrease the level of expression of calumenin. Control mice receive no treatment, treatment with taxol or doxorubicin alone (4 mg/kg daily) or treatment with control siRNA sequences that are not complementary to murine calumenin mRNA (3 μg daily for 16 days for each treatment) in combination with taxol or doxorubicin (4 mg/kg daily). Taxol and doxorubicin can be obtained commercially from Sigma Corp. (St. Louis, Mo.).
The animal's weight is measured every 4 days. Tumor growth starting on the first day of treatment is measured by palpitation and the volume of the xenograft is monitored every 4 days. The mice are anaesthetized and sacrificed when the mean tumor weight is over 1 g in the control group. Tumor tissue is excised from the mice and its weight is measured. Tumor weights from mice treated with the calumenin siRNA and chemotherapeutic drugs are compared to tumor weights from mice treated with control siRNA and chemotherapeutic drugs. Tumor cell count is determined by trypsinizing tumors in DMEM medium supplemented with 10% fetal bovine serum until cells are in free suspension. Cells are then transferred to 6-well plates for counting. Cell counts are compared. All experiments are performed in triplicate.
In order to determine whether targeting calumenin is useful in treating a preexisting cancerous condition, MHC-matched mice, 5 to 7 weeks old, receive an s.c. injection of 5×10^5 hematological tumor cells, and tumors are allowed to form. Tumor growth starting on the first day of treatment is measured by palpitation and the volume of the xenograft is monitored every 4 days. Tumors are allowed to grow to a sufficient size (5.5 mm) for appropriate analysis of the effects of calumenin treatment on tumor sensitivity to chemotherapeutic drugs. […]
The animal's weight is measured every 4 days. Tumor growth starting on the first day of treatment is measured and the volume of the xenograft is monitored every 4 days. […] Tumor tissue is excised from the mice and its weight is measured. […] Tumor cell count is determined by trypsinizing tumors in DMEM medium supplemented with 10% fetal bovine serum until cells are in free suspension. […]

For the substance “Calumenin siRNA: siRNA duplex targeting human calumenin mRNA; sense 5′-GAAGGACCGUGUACAUCAU-3′ (SEQ ID NO: 1), anti-sense 5′-AUGAUGUACACGGUCCUUC-3′ (SEQ ID NO: 2), 3′TT overhangs (3' TT overhangs on both strands, further chemistry not given here)”, the “number of Annexin-V-positive cells” value in the data set with MCF-7 cells (compared to cell population treated with control siRNA) is listed as “substantially greater number”. For the same substance, the cell survival entry in the data set with MCF-7 cells (compared to cells treated with siGLO control siRNA) is “decreased”. The “prognosis (i.e., smaller tumor or fewer tumor cells)” value in data set [1] (composition vs only the targeting agent or only the chemotherapeutic drug) is reported as “better prognosis”. In data set [1] (hematological cancers, vs mice treated with control siRNA), the “total cell number in tumors” value was “lower”. For the same substance, the tumors by weight entry in data set [1] (hematological cancers, vs mice treated with control siRNA, 3 μg siRNA daily for 16 days) is “smaller”. For the same substance, the “sensitivity of tumors to chemotherapeutic drug treatment regimes” value in data set [1] (hematological tumors in mice) was “increases”.

Source of the values: patent publication US20070243548A1, “Calumenin-directed diagnostics and therapeutics for cancer and chemotherapeutic drug resistance” (priority 2006, published 2007).
